These results are taken from patent US11034672B1, “Tyrosine kinase inhibitor compositions, methods of making and methods of use” (Black Diamond Therapeutics, Inc., priority 2018, dated 2021).

What all share (assay type): cell-based
Assay [1] has as its target T1, HER2 S310F (Homo sapiens, UniProt P04626, S310F).
T1 construct: expressed in transfected cells; host or cells: BaF3 (murine pro-B)
Nature of the assay: Activity for inhibiting HER2 (Table B), HER2 S310F. The following applies: read-out: HER2 S310F, potency code (IC50). The procedure:
(§1) EC50 values were determined with the same application.

The target in assay [2] is T2, EGFR WT (Homo sapiens, UniProt P00533). Nature of the assay: BaF3 cell proliferation assay, EGFR WT (Table A). The following applies: potency code, 3 days, CellTiterGlo, read-out: EGFR WT (Activity for Inhibiting EGFR). The procedure:
(§2) Retroviral Production: EGFR mutants were subcloned into pMXs-IRES-Blasticidin (RTV-016, Cell Biolabs, San Diego, Calif.). Retroviral expression vector retrovirus was produced by transient transfection of HEK 293T cells with the retroviral EGFR mutant expression vector pMXs-IRES-Blasticidin (RTV-016, Cell Biolabs), pCMV-Gag-Pol vector and pCMV-VSV-G-Envelope vector. Briefly, HEK 293T/17 cells were plated in 100 mm collagen coated plate (354450, Corning Life Sciences, Tewksbury, Mass.) (4×10^5 per plate) and incubated overnight. The next day, retroviral plasmids (3 μg of EGFR mutant, 1.0 μg of pCMV-Gag-Pol and 0.5 μg pCMV-VSV-G) were mixed in 500 μl of Optimem (31985, Life Technologies). The mixture was incubated at room temperature for 5 min and then added to Optimem containing transfection reagent Lipofectamine (11668, Invitrogen) and incubated for 20 minutes. Mixture was then added dropwise to HEK 293T cells. The next day the medium was replaced with fresh culture medium and retrovirus was harvested @ 24 and 48 hrs.
(§3) Generation of EGFR mutant stable cell lines: BaF3 cells (1.5E5 cells) were infected with 1 ml of viral supernatant supplemented with 8 μg/ml polybrene by centrifuging for 30 min at 1000 rpm. Cells were placed in a 37° C. incubator overnight. Cells were then spun for 5 minutes to pellet the cells. Supernatant was removed and cells re-infected a fresh 1 ml of viral supernatant supplemented with 8 μg/ml polybrene by centrifuging for 30 min at 1000 rpm. Cells were placed in 37° C. incubator overnight. […] After 48 hours cells were selected for retroviral infection in 10 μg/ml Blasticidin for one week. Blasticidin resistant populations were washed twice in phosphate buffered saline before plating in media lacking IL-3 to select for IL-3 independent growth.
as §1
For orientation: In ATP-based viability assays light output follows the ATP content of the culture.

The target in assay [3] is T3, HER2 YVMA (Homo sapiens, UniProt P04626, INS775YVMA).
T3 construct: expressed in transfected cells; host or cells: BaF3 (murine pro-B)
T3 sequence (P04626 with tags, fused parts or gaps INS775YVMA): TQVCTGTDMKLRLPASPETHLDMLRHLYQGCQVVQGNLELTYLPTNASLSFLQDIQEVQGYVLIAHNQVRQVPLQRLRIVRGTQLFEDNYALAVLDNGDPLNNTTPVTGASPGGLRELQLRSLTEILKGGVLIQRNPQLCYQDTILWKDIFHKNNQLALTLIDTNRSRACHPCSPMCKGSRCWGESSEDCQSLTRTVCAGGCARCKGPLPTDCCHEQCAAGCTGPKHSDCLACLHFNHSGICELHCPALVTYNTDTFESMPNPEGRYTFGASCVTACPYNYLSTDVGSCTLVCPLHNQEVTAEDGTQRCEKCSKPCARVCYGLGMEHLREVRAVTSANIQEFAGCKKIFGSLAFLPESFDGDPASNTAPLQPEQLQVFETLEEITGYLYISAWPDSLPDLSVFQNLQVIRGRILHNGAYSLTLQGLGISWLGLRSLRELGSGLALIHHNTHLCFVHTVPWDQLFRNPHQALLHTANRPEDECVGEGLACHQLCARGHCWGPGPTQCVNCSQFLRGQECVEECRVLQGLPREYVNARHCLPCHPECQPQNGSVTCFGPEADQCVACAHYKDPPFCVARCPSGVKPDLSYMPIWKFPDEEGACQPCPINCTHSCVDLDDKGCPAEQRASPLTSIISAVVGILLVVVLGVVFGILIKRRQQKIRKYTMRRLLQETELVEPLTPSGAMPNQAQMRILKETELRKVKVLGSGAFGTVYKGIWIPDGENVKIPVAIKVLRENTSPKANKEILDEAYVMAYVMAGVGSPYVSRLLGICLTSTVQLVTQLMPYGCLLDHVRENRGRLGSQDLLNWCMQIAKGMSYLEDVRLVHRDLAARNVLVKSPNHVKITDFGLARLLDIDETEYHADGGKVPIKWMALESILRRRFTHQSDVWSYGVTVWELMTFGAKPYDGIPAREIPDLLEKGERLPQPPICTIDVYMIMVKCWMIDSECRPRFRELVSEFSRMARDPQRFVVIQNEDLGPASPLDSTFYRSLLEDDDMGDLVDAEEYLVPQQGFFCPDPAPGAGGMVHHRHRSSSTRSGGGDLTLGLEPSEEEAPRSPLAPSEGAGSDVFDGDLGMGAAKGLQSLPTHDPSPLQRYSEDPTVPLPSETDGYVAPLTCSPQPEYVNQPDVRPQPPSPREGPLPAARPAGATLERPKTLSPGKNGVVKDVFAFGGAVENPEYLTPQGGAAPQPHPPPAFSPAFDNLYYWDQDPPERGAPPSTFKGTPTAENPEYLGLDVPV
Briefly: Activity for inhibiting HER2 (Table B), HER2 YVMA. The following applies: read-out: HER2 YVMA, potency code (IC50). The procedure:
as §1

The target of assay [4] is T4, EGFR V3 (Homo sapiens, UniProt P00533, DELINS30-297G).
T4 construct: expressed in transfected cells; host or cells: BaF3 (murine pro-B), retroviral pMXs-IRES-Blasticidin
T4 sequence (P00533 with tags, fused parts or gaps DELINS30-297G): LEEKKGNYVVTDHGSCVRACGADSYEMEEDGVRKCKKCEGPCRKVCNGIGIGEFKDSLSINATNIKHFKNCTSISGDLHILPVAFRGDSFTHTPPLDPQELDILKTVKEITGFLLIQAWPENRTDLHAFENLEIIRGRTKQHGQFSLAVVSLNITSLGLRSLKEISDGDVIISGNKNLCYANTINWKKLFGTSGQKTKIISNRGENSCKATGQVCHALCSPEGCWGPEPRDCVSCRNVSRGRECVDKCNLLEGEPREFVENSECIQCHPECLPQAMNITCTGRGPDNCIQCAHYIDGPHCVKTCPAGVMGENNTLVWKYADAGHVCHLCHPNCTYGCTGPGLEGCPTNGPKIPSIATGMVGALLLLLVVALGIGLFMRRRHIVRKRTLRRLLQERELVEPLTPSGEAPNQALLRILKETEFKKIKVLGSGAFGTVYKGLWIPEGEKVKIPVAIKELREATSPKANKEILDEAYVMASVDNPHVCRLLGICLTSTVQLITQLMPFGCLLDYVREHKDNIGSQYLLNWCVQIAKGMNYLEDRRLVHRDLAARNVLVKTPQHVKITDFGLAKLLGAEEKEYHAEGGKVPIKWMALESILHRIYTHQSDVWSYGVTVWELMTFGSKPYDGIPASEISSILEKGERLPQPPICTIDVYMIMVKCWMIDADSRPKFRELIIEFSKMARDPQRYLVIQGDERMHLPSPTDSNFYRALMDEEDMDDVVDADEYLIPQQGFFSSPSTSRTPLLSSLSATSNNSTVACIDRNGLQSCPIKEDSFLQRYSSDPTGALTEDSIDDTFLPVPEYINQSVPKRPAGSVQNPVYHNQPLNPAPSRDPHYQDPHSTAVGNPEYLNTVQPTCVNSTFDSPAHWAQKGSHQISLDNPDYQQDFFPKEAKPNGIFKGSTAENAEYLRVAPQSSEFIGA
Briefly: BaF3 cell proliferation assay, EGFR V3 (Table A). The following applies: potency code, 3 days, CellTiterGlo, read-out: EGFR V3 (Activity for Inhibiting EGFR). How it is done:
as §2, §3, §1

The target in assay [5] is T1, HER2 S310F. Briefly: BaF3 cell proliferation assay, HER2 S310F (Table B). The following applies: potency code, 3 days, CellTiterGlo, read-out: HER2 S310F (Activity for Inhibiting HER2).
The target in assay [6] is T2, EGFR WT. Briefly: Activity for inhibiting EGFR (Table A), EGFR WT. The following applies: read-out: EGFR WT, potency code (IC50).
Assay [7] concerns the target T4, EGFR V3. Briefly: Activity for inhibiting EGFR (Table A), EGFR V3 (EGFR-Viii). The following applies: read-out: EGFR V3, potency code (IC50).
Assay [8] concerns the target T3, HER2 YVMA. Nature of the assay: BaF3 cell proliferation assay, HER2 YVMA (Table B). The following applies: potency code, 3 days, CellTiterGlo, read-out: HER2 YVMA (Activity for Inhibiting HER2).

T2 sequence (P00533 25-1210 N540K): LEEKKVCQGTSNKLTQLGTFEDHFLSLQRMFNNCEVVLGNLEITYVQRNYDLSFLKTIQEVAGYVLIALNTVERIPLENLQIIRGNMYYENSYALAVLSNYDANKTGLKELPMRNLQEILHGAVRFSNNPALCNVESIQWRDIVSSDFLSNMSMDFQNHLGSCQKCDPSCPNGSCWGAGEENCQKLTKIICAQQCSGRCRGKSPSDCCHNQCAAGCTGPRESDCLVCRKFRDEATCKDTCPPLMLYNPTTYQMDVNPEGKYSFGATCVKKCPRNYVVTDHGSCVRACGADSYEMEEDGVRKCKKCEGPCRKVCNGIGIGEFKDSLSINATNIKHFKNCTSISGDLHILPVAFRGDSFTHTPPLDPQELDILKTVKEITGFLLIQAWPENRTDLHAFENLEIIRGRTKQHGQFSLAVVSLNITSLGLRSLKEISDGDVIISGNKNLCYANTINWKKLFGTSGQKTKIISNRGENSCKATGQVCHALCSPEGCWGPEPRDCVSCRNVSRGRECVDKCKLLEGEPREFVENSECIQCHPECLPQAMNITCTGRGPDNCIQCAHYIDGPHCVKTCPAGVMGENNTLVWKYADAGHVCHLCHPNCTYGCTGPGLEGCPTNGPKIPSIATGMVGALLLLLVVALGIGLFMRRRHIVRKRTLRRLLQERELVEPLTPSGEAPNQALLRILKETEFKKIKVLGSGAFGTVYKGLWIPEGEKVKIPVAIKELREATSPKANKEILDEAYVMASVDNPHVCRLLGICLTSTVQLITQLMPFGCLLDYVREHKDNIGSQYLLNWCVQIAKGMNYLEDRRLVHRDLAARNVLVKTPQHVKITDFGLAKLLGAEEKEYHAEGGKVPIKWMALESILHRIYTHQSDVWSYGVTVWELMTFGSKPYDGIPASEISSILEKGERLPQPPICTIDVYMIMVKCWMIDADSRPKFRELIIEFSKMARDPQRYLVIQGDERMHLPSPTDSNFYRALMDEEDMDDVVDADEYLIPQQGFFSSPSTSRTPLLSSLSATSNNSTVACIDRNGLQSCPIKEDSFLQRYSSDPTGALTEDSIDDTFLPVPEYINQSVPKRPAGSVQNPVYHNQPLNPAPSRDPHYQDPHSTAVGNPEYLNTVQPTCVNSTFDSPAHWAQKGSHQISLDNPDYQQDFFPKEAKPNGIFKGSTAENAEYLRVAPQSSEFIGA
T1 sequence (P04626 23-1255 S310F): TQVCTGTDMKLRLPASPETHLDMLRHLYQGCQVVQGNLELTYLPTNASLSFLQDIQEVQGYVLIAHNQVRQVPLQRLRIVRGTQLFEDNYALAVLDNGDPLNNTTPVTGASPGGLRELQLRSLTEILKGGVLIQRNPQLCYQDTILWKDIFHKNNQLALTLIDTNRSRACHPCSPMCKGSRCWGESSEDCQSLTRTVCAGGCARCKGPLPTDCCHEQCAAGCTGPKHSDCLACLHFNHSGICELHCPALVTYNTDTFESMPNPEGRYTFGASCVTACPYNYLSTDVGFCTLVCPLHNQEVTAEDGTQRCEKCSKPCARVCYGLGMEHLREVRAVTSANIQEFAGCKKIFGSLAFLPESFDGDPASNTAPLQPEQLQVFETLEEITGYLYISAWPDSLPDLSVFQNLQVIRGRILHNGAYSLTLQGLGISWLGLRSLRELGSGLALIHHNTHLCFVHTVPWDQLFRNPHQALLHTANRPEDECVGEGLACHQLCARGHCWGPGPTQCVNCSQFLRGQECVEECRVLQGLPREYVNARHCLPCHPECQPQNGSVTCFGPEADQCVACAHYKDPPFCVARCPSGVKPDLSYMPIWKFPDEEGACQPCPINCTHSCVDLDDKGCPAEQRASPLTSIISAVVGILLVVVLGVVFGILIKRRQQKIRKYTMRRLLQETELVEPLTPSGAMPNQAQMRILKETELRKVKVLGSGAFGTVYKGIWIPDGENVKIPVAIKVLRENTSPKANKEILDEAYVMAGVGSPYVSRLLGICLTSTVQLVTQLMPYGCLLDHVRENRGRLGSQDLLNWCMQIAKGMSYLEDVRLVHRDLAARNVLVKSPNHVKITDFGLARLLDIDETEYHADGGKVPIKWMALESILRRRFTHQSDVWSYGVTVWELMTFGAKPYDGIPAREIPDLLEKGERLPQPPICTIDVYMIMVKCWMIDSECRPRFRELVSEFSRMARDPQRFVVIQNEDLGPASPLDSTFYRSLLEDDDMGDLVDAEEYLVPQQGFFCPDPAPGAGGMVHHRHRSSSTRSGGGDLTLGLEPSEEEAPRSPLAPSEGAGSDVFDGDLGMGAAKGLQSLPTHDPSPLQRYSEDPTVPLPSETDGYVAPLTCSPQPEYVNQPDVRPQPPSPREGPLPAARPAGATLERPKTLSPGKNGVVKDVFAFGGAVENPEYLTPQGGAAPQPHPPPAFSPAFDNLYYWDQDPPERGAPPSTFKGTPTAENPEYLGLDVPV

Consider `C=CC(=O)Nc1cc2c(Nc3ccc(OCc4cccc(OC(F)(F)F)n4)c(Cl)c3)ncnc2cc1OCCN1CCOCC1` [compound 24], for which the IC50 in assay [1] was 200 to 300 nM; in assay [2], above 1000 nM; in assay [3], 300 to 500 nM; in assay [4] it was 200 to 300 nM; in assay [5] it was 200 to 300 nM; in assay [6], above 1000 nM. Also, the IC50 fell in the range of 200 to 300 nM in assay [7] and 300 to 500 nM in assay [8].

Take `C=CC(=O)Nc1cc2c(Nc3ccc(OCc4ccccn4)c(Cl)c3)ncnc2cc1N1CC2(CN(C)C2)C1` [compound 45]: the IC50 is 300 to 500 nM in assay [1]; 500 to 1000 nM in assay [2]; above 1000 nM in assay [3]; 200 to 300 nM in assay [4]; 300 to 500 nM in assay [5]; 500 to 1000 nM in assay [6]. Besides, the IC50 was 200 to 300 nM in assay [7] and above 1000 nM in assay [8].

Take `C=CC(=O)Nc1cc2c(Nc3ccc(OCc4ccccn4)c(Cl)c3)ncnc2cc1N1CC2(CCN2C)C1` [compound 50]: the IC50 in assay [1] was 200 to 300 nM; in assay [2], above 1000 nM; in assay [3], above 1000 nM; in assay [4], 30 to 50 nM; in assay [5], 200 to 300 nM; in assay [6] it was above 1000 nM. Further, the results for the IC50 in assay [7] and in assay [8] were 30 to 50 nM and above 1000 nM, respectively.

`C=CC(=O)Nc1cc2c(Nc3ccc(OCc4ccccn4)c(Cl)c3)ncnc2cc1OCCN(C)C1CC1` [compound 53]: the IC50 was 30 to 50 nM in assay [1]; above 1000 nM in assay [2]; 100 to 200 nM in assay [3]; 30 to 50 nM in assay [4]; 30 to 50 nM in assay [5]; above 1000 nM in assay [6]. The IC50 in assay [7] fell in the range of 30 to 50 nM; in assay [8] it was 100 to 200 nM.

For the compound `C=CC(=O)Nc1cc2c(Nc3ccc(OCc4ccccn4)c(Cl)c3)ncnc2cc1OCC1(N)CC1` [compound 55], the IC50 was 50 to 100 nM in assay [1]; above 1000 nM in assay [2]; 200 to 300 nM in assay [3]; 50 to 100 nM in assay [4]; 50 to 100 nM in assay [5]; above 1000 nM in assay [6]. Also, the IC50 in assay [7] was 50 to 100 nM; in assay [8] it was 200 to 300 nM.

In the case of `C=CC(=O)Nc1cc2c(Nc3ccc(OCc4ccccn4)cn3)ncnc2cc1OC1CCN(C)C1` (stereo not shown) [compound 61], the IC50 in assay [1] was 300 to 500 nM; in assay [2] it was above 1000 nM; in assay [3], above 1000 nM; in assay [4], 300 to 500 nM; in assay [5] it was 300 to 500 nM; in assay [6] it was above 1000 nM. Moreover, the IC50 was 300 to 500 nM in assay [7] and above 1000 nM in assay [8].

On to `C=CC(=O)Nc1cc2c(Nc3ccc(OCc4ccccn4)c(Cl)c3)ncnc2cc1N1CCC(N(C)C)C1` (stereo not shown) [compound 64], for which the IC50 in assay [1] is 300 to 500 nM; in assay [2], above 1000 nM; in assay [3], above 1000 nM; in assay [4] it was 100 to 200 nM; in assay [5], 300 to 500 nM; in assay [6], above 1000 nM. For the same compound, the IC50 in assay [7] is 100 to 200 nM; in assay [8], above 1000 nM.

As for `C=CC(=O)Nc1cc2c(Nc3ccc(OCc4ccccn4)nc3)ncnc2cc1OCCN1CCOCC1` [compound 71], the IC50 was 200 to 300 nM in assay [1]; 500 to 1000 nM in assay [2]; above 1000 nM in assay [3]; 50 to 100 nM in assay [4]; 200 to 300 nM in assay [5]; 500 to 1000 nM in assay [6]. For the same compound, the IC50 was 50 to 100 nM in assay [7] and above 1000 nM in assay [8].

As to `C=CC(=O)Nc1cc2c(Nc3ccc(OCc4ccccn4)nc3)ncnc2cc1O[C@@H]1CCN(C)C1` [compound 72], the IC50 was 300 to 500 nM in assay [1]; above 1000 nM in assay [2]; above 1000 nM in assay [3]; 300 to 500 nM in assay [4]; 300 to 500 nM in assay [5]; above 1000 nM in assay [6]. Further, the IC50 in assay [7] was 300 to 500 nM; in assay [8], above 1000 nM.

In the case of `C=CC(=O)Nc1cc2c(Nc3ccc(Oc4ccc(C)nc4)c(C)c3)ncnc2cc1OCCN1CCOCC1` [compound 73], the IC50 in assay [1] is 30 to 50 nM; in assay [2], 500 to 1000 nM; in assay [3] it was 300 to 500 nM; in assay [4], 50 to 100 nM; in assay [5] it was 30 to 50 nM; in assay [6] it was 500 to 1000 nM. Also, the IC50 in assay [7] is 50 to 100 nM; in assay [8] it was 300 to 500 nM.

On to `C=CC(=O)Nc1cc2c(Nc3ccc(Oc4cccnc4)cc3)ncnc2cc1OCCN1CCOCC1` [compound 75], for which the IC50 in assay [1] is 100 to 200 nM; in assay [2], above 1000 nM; in assay [3], 300 to 500 nM; in assay [4], 100 to 200 nM; in assay [5], 100 to 200 nM; in assay [6] it was above 1000 nM. The IC50 in assay [7] lay within 100 to 200 nM; in assay [8], 300 to 500 nM.

For `C=CC(=O)Nc1cc2c(Nc3ccc(OCc4ccccn4)c(Cl)c3)ncnc2cc1OCCN1CCC(N(C)C)CC1` [compound 76], the IC50 in assay [1] fell in the range of 30 to 50 nM; in assay [2], 200 to 300 nM; in assay [3], 100 to 200 nM; in assay [4] it was 50 to 100 nM; in assay [5], 30 to 50 nM; in assay [6], 200 to 300 nM. Also, the IC50 in assay [7] is 50 to 100 nM; in assay [8] it was 100 to 200 nM.

As for `C=CC(=O)Nc1cc2c(Nc3ccc(OCc4ccccn4)c(Cl)c3)ncnc2cc1OCCN1CC2CN(C)CC2C1` (stereo not shown) [compound 77], the IC50 in assay [1] fell in the range of 20 to 30 nM; in assay [2], 100 to 200 nM; in assay [3], 100 to 200 nM; in assay [4], 50 to 100 nM; in assay [5] it was 20 to 30 nM; in assay [6] it was 100 to 200 nM. Besides, the results for the IC50 in assay [7] and in assay [8] were 50 to 100 nM and 100 to 200 nM, respectively.

With `C=CC(=O)Nc1cc2c(Nc3ccc(OCc4ccccn4)cc3)ncnc2cc1OCC1COCCN1` (stereo not shown) [compound 79], the IC50 is 100 to 200 nM in assay [1]; 300 to 500 nM in assay [2]; above 1000 nM in assay [3]; 50 to 100 nM in assay [4]; 100 to 200 nM in assay [5]; 300 to 500 nM in assay [6]. In addition, the IC50 in assay [7] is 50 to 100 nM; in assay [8], above 1000 nM.

Regarding `C=CC(=O)Nc1cc2c(Nc3ccc(OCc4ccccn4)cc3)ncnc2cc1OCCN1CCC(N(C)C)CC1` [compound 80], the IC50 lay in the range of 50 to 100 nM in assay [1]; 100 to 200 nM in assay [2]; 500 to 1000 nM in assay [3]; 50 to 100 nM in assay [4]; 50 to 100 nM in assay [5]; 100 to 200 nM in assay [6]. Moreover, the IC50 in assay [7] fell in the range of 50 to 100 nM; in assay [8], 500 to 1000 nM.

For `C=CC(=O)Nc1cc2c(Nc3ccc(Oc4ccc(C)nc4)c(C)c3)ncnc2cc1C#CC(C)(C)N(C)C` [compound 82], the IC50 in assay [1] lay in the range of 50 to 100 nM; in assay [2] it was 500 to 1000 nM; in assay [3] it was 500 to 1000 nM; in assay [4], 300 to 500 nM; in assay [5], 50 to 100 nM; in assay [6], 500 to 1000 nM. Besides, the IC50 lay in the range of 300 to 500 nM in assay [7] and 500 to 1000 nM in assay [8].

Regarding `C=CC(=O)Nc1cc2c(Nc3ccc(OCc4ccccn4)c(Cl)c3)ncnc2cc1C#CC1CCCN1` (stereo not shown) [compound 83, N-(4-((3-chloro-4-(pyridin-2-ylmethoxy)phenyl)amino)-7-(pyrrolidin-2-ylethynyl)quinazolin-6-yl)acrylamide], the IC50 in assay [1] was 10 to 20 nM; in assay [2], 500 to 1000 nM; in assay [3] it was 100 to 200 nM; in assay [4] it was 50 to 100 nM; in assay [5] it was 10 to 20 nM; in assay [6], 500 to 1000 nM. Also, the values for the IC50 in assay [7] and in assay [8] were 50 to 100 nM and 100 to 200 nM, respectively.
